Among the data in US12454529B2, “Piperazine cyclic ureas” (SIRONAX LTD., priority 2020, dated 2025) are EC50 values, retold here.

In the experiment the test system is HT-29 cells. Kind of experiment: HT-29 cell necrosis/necroptosis inhibition (TNF-α + SMAC mimetic + zVAD-FMK; CellTiter-Glo cell viability). Type of experiment: cell-based. The conditions noted are these: Homo sapiens; HT-29 cells, TNF-α 10 ng/ml + SMAC mimetic 6 μM + zVAD-FMK 10 μM, 20 hours; geometric mean, 10 points in duplicate; read-out: EC50 (Cell activity; Necrosis/Necroptosis Inhibitory Activity, Compounds 143-323). The procedure, abridged: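 Necroptosis was driven by TNF-α 10 ng/ml plus SMAC mimetic 6 μM and zVAD-FMK 10 μM in serum-free medium, with compounds as a 10-point threefold titration. After 20 h at 37 °C, ATP-based luminescence was read; EC50 values are geometric means of duplicate curves.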
A general note: ATP-based viability assays read luminescence as a measure of living cells.

Turning to `Cc1ncn(-c2nc(N3CCN(C(=O)N4N=CC[C@H]4c4ccccc4)CC3)ncc2F)n1` [Compound 309, (S)-(4-(5-fluoro-4-(3-methyl-1H-1,2,4-triazol-1-yl)pyrimidin-2-yl)piperazin-1-yl)(5-phenyl-4,5-dihydro-1H-pyrazol-1-yl)methanone], the 50% effective concentration (EC50) (usually the concentration that produces a half-maximal response) is 0.1 to 100 nM. Consider `CCn1c(C)nn(-c2nc(N3CCN(C(=O)N4N=CC[C@H]4c4cc(F)cc(C#N)c4)CC3)ncc2F)c1=O` [Compound 181, (S)-3-(1-(4-(4-(4-ethyl-3-methyl-5-oxo-4,5-dihydro-1H-1,2,4-triazol-1-yl)-5-fluoropyrimidin-2-yl)piperazine-1-carbonyl)-4,5-dihydro-1H-pyrazol-5-yl) fluorobenzonitrile], for which the EC50 was 0.1 to 100 nM.
